Assay results: paper PMC7359024, “Synthesis, Structure–Activity Relationship, and Mechanistic Studies of Aminoquinazolinones Displaying Antimycobacterial Activity” (ACS Infectious Diseases, 2020)
In brackets after ≈: the same amount, converted by molar mass. Where two headings read alike, the source gives them in different places.

Key:
[1] = physchem; type: physicochemical; settings: for solubility: kinetic solubility, pH 7.4, HPLC method
Method: The kinetic solubility assay was performed using a miniaturised shake flask method. 10 mM stock solutions of each of the test compounds were used to prepare calibration standards (10-220μM) in DMSO. The same 10mM stock solutions were accurately dispensed in duplicate into 96-well plates and the DMSO dried down (MiVac GeneVac, 90 min, 37 °C). Thereafter, the samples were reconstituted (200 µM) in phosphate buffered saline (pH 7.4) and shaken (20 hours, 25 °C). The solutions were filtered and analysed by means of HPLC -DAD (Agilent 1200 Rapid Resolution HPLC with a diode array detector). […]

[2] = system: Mtb H37Rv strain; assay: MIC90 determination in GASTE-Fe media (broth microdilution); type: cell-based, Mycobacterium tuberculosis; settings: Mtb H37Rv, replicating conditions, GASTE-Fe media, read 14 days after incubation, read-out: MIC90 GASTE-Fe
[3] = in vitro; settings: Chinese hamster
[4] = type: in vitro ADME; settings: for Metabolic Stability H (% Rem.): human liver microsomes; for Metabolic Stability M (% Rem.): mouse liver microsomes; for Metabolic Stability R (% Rem.): rat liver microsomes
Method: 3.2. Microsomal stability
The metabolic stability assay was performed in duplicate in a 96-well micro titre plate. The test compounds (0.1 μM) were incubated individually in mouse, rat and pooled human liver microsomes ((final protein concentration of 0.4 mg/mL; XenoTech, Lenexa, KS ), suspended in 0.1M phosphate buffer (pH 7.4) at 37 °C for predetermined time points, in the presence and absence of the cofactor NADPH (1 mM). Reactions were quenched by adding ice cold acetonitrile containing internal standard (carbamazepine, 0.0236 µg/mL). T he samples were centrifuged and test compound in the supernatant were analysed by means of LC -MS/MS (Agilent Rapid Resolution HPLC, AB SCIEX 4500 MS ). The relative loss of parent compound over time was monitored and plots (concentration vs. time) were prepared per compound to determine the first order rate constant for compound depletion. This was in turn used to calculate half-life, in vitro intrinsic clearance and in vivo hepatic extraction ratio. Metabolite searches were not conducted during the metabolic stability assay. 5

[5] = Mycobacterium tuberculosis, H37RV, 336 h

| Compound | solubility ([1]; 25 °C, pH 7.4, aqueous buffer) | solubility [1] | fold improvement in solubility ([1]; pH 7.4, relative to comparator analogue) | MIC90 [2, 5] | IC50 [3] | Metabolic Stability H (% Rem.) [4] | Metabolic Stability M (% Rem.) [4] | Metabolic Stability R (% Rem.) [4] | MIC90 [2] |
| --- | --- | --- | --- | --- | --- | --- | --- | --- | --- |
| Cc1ccc(S(C)(=O)=O)cc1-c1ccc2nc(N)n(-c3ccc(C(F)(F)F)cc3)c(=O)c2c1 [compound 7] | 53.3 µM (≈ 25.2 µg/mL) | 53 µM (≈ 25.1 µg/mL) | 10 fold | 4.22 µM (≈ 2 µg/mL) | > 100 µM | 65 % Rem. | 90 % Rem. | 86 % Rem. | – |
| Nc1nc2ccc(-c3cccc(S(=O)(=O)C4CC4)c3)cc2c(=O)n1-c1ccc(C(F)(F)F)cc1 [compound 8] | 66 µM (≈ 32 µg/mL) | – | – | 2.35 µM (≈ 1.14 µg/mL) | 0.021 µM | 85 % Rem. | 97 % Rem. | 98 % Rem. | – |
| NC(=O)c1cccc(-c2ccc3nc(N)n(-c4ccc(C(F)(F)F)cc4)c(=O)c3c2)c1 [compound 9] | < 5 µM | – | – | < 0.244 µM | > 100 µM | 97/-/- % Rem. | – | – | – |
| CN(C)C(=O)c1cccc(-c2ccc3nc(N)n(-c4ccc(C(F)(F)F)cc4)c(=O)c3c2)c1 [compound 10] | 46 µM (≈ 20.8 µg/mL) | – | – | 2.15 µM (≈ 0.973 µg/mL) | 0.64 µM | 85 % Rem. | 89 % Rem. | 86 % Rem. | – |
| CNC(=O)c1cccc(-c2ccc3nc(N)n(-c4ccc(C(F)(F)F)cc4)c(=O)c3c2)c1 [compound 11] | < 5 µM | – | – | 0.78 µM (≈ 0.342 µg/mL) | 96.3 µM | 98 % Rem. | 100 % Rem. | 100 % Rem. | – |
| CN(C)CCNC(=O)c1cccc(-c2ccc3nc(N)n(-c4ccc(C(F)(F)F)cc4)c(=O)c3c2)c1 [compound 13] | 168 µM (≈ 83.2 µg/mL) | – | – | 0.82 µM (≈ 0.406 µg/mL) | > 50 µM | 82 % Rem. | 56 % Rem. | 40 % Rem. | – |
| Nc1nc2ccc(-c3cccc(C(=O)NCCO)c3)cc2c(=O)n1-c1ccc(C(F)(F)F)cc1 [compound 14] | 192 µM (≈ 89.9 µg/mL) | 193 µM (≈ 90.4 µg/mL) | – | 1.03 µM (≈ 0.482 µg/mL) | > 50 µM | 81 % Rem. | 90 % Rem. | 83 % Rem. | – |
| Nc1nc2ccc(-c3cccc(C(=O)NCCN4CCOCC4)c3)cc2c(=O)n1-c1ccc(C(F)(F)F)cc1 [compound 15, 3-(2-amino-4-oxo-3-(4-(trifluoromethyl)phenyl)-3,4-dihydroquinazolin-6-yl)-N-(2-morpholinoethyl)benzamide] | < 5 µM | – | – | 1.45 µM (≈ 0.779 µg/mL) | 8.77 µM | 51 % Rem. | 59 % Rem. | 62 % Rem. | – |
| Nc1nc2ccc(-c3cccc(C(=O)N4CCOCC4)c3)cc2c(=O)n1-c1ccc(C(F)(F)F)cc1 [compound 16, 2-Amino-6-(3-(morpholine-4-carbonyl)phenyl)-3-(4-(trifluoromethyl)phenyl)quinazolin-4(3H)-one] | 56 µM (≈ 27.7 µg/mL) | – | – | 4.93 µM (≈ 2.44 µg/mL) | > 50 µM | 71 % Rem. | 78 % Rem. | 77 % Rem. | – |
| Nc1nc2ccc(-c3cccc(C(=O)N4CCSCC4)c3)cc2c(=O)n1-c1ccc(C(F)(F)F)cc1 [compound 18, 2-Amino-6-(3-(thiomorpholine-4-carbonyl)phenyl)-3-(4-(trifluoromethyl)phenyl)quinazolin-4(3H)-one] | 46 µM (≈ 23.5 µg/mL) | – | – | 0.656 µM (≈ 0.335 µg/mL) | > 50 µM | 8 % Rem. | 22 % Rem. | 23 % Rem. | – |
| CN1CCN(C(=O)c2cccc(-c3ccc4nc(N)n(-c5ccc(C(F)(F)F)cc5)c(=O)c4c3)c2)CC1 [compound 19] | 51 µM (≈ 25.9 µg/mL) | – | – | 1.57 µM (≈ 0.797 µg/mL) | > 50 µM | 97 % Rem. | 94 % Rem. | 86 % Rem. | – |
| Nc1nc2ccc(-c3cccc(C(=O)O)c3)cc2c(=O)n1-c1ccc(C(F)(F)F)cc1 [compound 20] | 29 µM (≈ 12.3 µg/mL) | – | – | 112 µM (≈ 47.6 µg/mL) | > 100 µM | 99 % Rem. | 98 % Rem. | 97 % Rem. | – |
| Nc1nc2ccc(-c3cncnc3)cc2c(=O)n1-c1ccc(C(F)(F)F)cc1 [compound 21] | 40 µM (≈ 15.3 µg/mL) | – | – | 10 µM (≈ 3.83 µg/mL) | > 100 µM | 94/-/- % Rem. | – | – | – |
| Nc1nc2ccc(-c3cccnc3)cc2c(=O)n1-c1ccc(C(F)(F)F)cc1 [compound 22] | 20 µM (≈ 7.65 µg/mL) | – | – | 0.625 µM (≈ 0.239 µg/mL) | > 100 µM | 68/-/- % Rem. | – | – | – |
| Cc1cncc(-c2ccc3nc(N)n(-c4ccc(C(F)(F)F)cc4)c(=O)c3c2)c1 [compound 23] | < 5 µM | – | – | > 2 µM | > 100 µM | 87/-/- % Rem. | – | – | 2.5 µM (≈ 0.991 µg/mL) |
| CN(C)c1cccc(-c2ccc3nc(N)n(-c4ccc(C(F)(F)F)cc4)c(=O)c3c2)c1 [compound 27] | 20 µM (≈ 8.49 µg/mL) | – | – | 2.5 µM (≈ 1.06 µg/mL) | > 100 µM | 37/-/- % Rem. | – | – | – |
| Nc1nc2ccc(-c3cccc(C(F)(F)F)c3)cc2c(=O)n1-c1ccc(C(F)(F)F)cc1 [compound 28] | 40 µM (≈ 18 µg/mL) | – | – | 0.75 µM (≈ 0.337 µg/mL) | > 100 µM | 88/-/- % Rem. | – | – | – |
| CS(=O)(=O)c1cccc(-c2ccc3c(=O)n(-c4ccc(C(F)(F)F)cc4)c(N)nc3c2)c1 [compound 30] | < 5 µM | – | – | 1.39 µM (≈ 0.639 µg/mL) | > 50 µM | 99/99/99 % Rem. | 99/99/99 % Rem. | 99/99/99 % Rem. | – |
| C[S+]([O-])c1cccc(-c2ccc3c(=O)n(-c4ccc(C(F)(F)F)cc4)c(N)nc3c2)c1 (stereo not shown) [compound 31] | < 5 µM | – | – | 1.32 µM (≈ 0.585 µg/mL) | > 50 µM | 98 % Rem. | 78 % Rem. | 73 % Rem. | – |
| Nc1nc2cc(-c3cccc(C(F)(F)F)c3)ccc2c(=O)n1-c1ccc(C(F)(F)F)cc1 [compound 32] | < 5 µM | – | – | 0.8 µM (≈ 0.359 µg/mL) | > 50 µM | 95 % Rem. | 82 % Rem. | 89 % Rem. | – |
| CNc1nc2ccc(-c3cccc([S+](C)[O-])c3)cc2c(=O)n1-c1ccc(C(F)(F)F)cc1 (stereo not shown) [compound 40, 2-(Methylamino)-6-(3-(methylsulfinyl)phenyl)-3-(4-(trifluoromethyl)phenyl)quinazolin-4(3H)-one] | 64 µM (≈ 29.3 µg/mL) | – | – | 1.4 µM (≈ 0.64 µg/mL) | > 50 µM | 89 % Rem. | 87 % Rem. | 90 % Rem. | – |
